Experimental data: patent US20050058695A1, “Norethindrone sustained release formulations and methods associated therewith” (Watson Pharmaccuticals, Inc., priority 2002, published 2005)

Assays:
[1] = cited from earlier work
[2] = in situ conversion of norethindrone acetate to norethindrone in the transdermal formulation; format: physicochemical

## C#C[C@]1(OC(C)=O)CC[C@H]2[C@@H]3CCC4=CC(=O)CC[C@@H]4[C@H]3CC[C@@]21C [NEA, norethindrone acetate]
[1]; FIG. 3 of U.S. Pat. No. 5,980,932
  time at which maximum skin flux for NEA is attained: only after the second day of administration
[1]; FIGS. 1 and 2 of U.S. Patent Application Publication No. 2003/0152615, in h
  time at which maximum NEA skin flux is obtained following administration: ~48
[2]
  conversion to norethindrone in situ in the transdermal formulation: does not convert to norethindrone in situ
